For ten molecules, IC50 results are on record in patent US20250145606A1 (Arcus Biosciences, Inc., priority 2023, published 2025).

For orientation: IC50 means the point on the concentration scale where inhibition reaches its midpoint. A high value points to lower potency.

Common to all, as to details: biochemical, HTRF KinEASE-TK
On the technique in general: TR-FRET usually uses a lanthanide donor and a delayed reading to cut background.

The target in one assay is PDGFRβ (Homo sapiens (Human), UniProt P09619). As to the kind of experiment: Inhibition of PDGFRβ kinase activity (HTRF KinEASE-TK). Put shortly:
(§1)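 Recombinant kinases (2 nM CSF1R and c-Kit, 10 nM PDGFRα/β, 2× working) preincubated 1 h with compound in 50 mM HEPES pH 7.4, 5 mM MgCl2 (c-Kit) or 10 mM (others), 2 mM MnCl2; 2× ATP: c-Kit 16 μM, PDGFRα 1 μM, PDGFRβ 40 μM, CSF1R 20 μM. 120 min reaction at rt; TR-FRET 665/620 nm; IC50 by 4-parameter fit.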

The target in another assay is PDGFRα (Homo sapiens (Human), UniProt P16234). The assay is described as follows: Inhibition of PDGFRα kinase activity (HTRF KinEASE-TK). In a few lines:
as §1

A further assay addresses c-Kit (Homo sapiens (Human), UniProt P10721). As to the kind of experiment: Inhibition of c-Kit kinase activity (HTRF KinEASE-TK). It counts as biochemical. In a few lines:
as §1

For the next assay, the target named is CSF1R (Homo sapiens (Human), UniProt P07333). The assay is described as follows: Inhibition of CSF1R kinase activity (HTRF KinEASE-TK). In a few lines: as §1
Chain of CSF1R (P07333 20-972): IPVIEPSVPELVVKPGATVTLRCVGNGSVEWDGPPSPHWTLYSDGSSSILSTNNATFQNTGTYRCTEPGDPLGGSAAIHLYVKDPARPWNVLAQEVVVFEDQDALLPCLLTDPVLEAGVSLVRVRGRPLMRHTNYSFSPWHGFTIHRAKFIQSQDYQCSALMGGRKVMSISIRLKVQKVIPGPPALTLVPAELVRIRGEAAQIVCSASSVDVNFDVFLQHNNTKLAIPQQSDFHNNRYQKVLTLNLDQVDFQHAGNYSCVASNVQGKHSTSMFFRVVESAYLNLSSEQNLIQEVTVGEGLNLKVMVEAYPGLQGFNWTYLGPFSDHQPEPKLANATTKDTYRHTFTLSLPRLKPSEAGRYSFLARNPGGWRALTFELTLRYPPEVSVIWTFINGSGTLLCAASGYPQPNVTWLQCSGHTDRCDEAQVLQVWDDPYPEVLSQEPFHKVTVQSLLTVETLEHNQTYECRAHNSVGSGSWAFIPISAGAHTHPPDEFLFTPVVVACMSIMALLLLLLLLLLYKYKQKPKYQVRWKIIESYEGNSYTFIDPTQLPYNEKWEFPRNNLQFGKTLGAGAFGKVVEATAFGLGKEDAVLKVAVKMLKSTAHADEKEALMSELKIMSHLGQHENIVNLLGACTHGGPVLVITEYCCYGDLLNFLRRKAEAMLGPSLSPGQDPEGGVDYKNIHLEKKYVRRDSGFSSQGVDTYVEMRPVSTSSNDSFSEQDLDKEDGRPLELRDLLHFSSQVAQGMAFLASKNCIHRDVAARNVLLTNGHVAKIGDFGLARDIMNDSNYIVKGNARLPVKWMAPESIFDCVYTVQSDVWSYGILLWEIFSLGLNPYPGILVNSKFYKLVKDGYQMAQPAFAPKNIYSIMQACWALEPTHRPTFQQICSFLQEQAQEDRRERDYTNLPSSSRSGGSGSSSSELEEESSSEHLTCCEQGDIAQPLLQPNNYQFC

Chain of PDGFRβ (P09619 33-1106): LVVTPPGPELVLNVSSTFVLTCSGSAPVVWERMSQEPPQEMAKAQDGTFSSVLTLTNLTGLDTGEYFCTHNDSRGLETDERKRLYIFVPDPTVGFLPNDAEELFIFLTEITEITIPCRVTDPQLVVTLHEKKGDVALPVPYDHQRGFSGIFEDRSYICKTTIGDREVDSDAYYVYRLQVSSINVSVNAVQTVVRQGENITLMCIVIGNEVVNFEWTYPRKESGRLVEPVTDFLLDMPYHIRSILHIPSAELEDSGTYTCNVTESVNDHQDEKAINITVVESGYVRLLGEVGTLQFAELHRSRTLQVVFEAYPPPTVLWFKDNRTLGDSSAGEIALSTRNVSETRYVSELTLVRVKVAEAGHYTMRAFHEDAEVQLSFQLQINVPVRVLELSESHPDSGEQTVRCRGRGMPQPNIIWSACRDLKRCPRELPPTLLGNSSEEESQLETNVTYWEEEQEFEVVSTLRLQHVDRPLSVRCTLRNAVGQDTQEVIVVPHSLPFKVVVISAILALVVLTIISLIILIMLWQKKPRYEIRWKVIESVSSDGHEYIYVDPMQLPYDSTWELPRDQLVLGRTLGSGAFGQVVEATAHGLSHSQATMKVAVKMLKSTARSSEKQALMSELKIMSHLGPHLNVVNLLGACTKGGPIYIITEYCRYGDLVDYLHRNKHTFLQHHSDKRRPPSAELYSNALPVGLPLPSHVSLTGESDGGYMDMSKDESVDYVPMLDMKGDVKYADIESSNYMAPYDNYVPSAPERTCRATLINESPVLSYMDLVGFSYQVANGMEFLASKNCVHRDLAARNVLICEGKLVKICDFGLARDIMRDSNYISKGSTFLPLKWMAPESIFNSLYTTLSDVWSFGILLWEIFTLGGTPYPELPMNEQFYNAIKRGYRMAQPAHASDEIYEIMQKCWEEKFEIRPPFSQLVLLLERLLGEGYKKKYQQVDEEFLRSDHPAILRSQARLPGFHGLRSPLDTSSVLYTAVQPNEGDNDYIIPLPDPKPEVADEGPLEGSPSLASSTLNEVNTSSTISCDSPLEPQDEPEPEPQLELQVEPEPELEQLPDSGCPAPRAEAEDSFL
Chain of c-Kit (P10721 26-976): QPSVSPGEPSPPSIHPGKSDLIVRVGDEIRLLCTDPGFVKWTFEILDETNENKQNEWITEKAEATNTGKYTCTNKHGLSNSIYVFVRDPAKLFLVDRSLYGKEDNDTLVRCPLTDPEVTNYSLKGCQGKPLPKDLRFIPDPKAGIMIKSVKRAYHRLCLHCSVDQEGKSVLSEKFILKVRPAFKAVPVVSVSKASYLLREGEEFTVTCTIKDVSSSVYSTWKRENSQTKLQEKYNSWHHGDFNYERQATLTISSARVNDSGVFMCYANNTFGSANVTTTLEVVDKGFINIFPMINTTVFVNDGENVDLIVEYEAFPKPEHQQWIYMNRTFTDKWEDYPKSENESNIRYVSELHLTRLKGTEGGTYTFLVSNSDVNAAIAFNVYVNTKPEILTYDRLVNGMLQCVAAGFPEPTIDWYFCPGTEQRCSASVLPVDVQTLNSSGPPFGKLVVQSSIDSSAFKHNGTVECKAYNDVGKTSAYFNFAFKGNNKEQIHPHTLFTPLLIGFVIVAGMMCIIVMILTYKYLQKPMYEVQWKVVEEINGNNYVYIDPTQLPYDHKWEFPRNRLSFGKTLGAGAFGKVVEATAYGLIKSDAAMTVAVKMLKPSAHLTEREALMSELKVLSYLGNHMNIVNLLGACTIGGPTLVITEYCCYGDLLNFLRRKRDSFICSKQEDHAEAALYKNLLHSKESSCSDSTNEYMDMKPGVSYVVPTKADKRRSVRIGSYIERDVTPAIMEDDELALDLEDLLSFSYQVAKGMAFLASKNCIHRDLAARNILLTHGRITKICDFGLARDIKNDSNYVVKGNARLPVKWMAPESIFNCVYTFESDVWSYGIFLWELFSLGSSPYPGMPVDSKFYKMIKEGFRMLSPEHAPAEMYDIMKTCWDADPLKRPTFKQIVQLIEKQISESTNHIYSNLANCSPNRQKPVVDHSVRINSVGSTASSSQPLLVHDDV
Chain of PDGFRα (P16234 24-1089): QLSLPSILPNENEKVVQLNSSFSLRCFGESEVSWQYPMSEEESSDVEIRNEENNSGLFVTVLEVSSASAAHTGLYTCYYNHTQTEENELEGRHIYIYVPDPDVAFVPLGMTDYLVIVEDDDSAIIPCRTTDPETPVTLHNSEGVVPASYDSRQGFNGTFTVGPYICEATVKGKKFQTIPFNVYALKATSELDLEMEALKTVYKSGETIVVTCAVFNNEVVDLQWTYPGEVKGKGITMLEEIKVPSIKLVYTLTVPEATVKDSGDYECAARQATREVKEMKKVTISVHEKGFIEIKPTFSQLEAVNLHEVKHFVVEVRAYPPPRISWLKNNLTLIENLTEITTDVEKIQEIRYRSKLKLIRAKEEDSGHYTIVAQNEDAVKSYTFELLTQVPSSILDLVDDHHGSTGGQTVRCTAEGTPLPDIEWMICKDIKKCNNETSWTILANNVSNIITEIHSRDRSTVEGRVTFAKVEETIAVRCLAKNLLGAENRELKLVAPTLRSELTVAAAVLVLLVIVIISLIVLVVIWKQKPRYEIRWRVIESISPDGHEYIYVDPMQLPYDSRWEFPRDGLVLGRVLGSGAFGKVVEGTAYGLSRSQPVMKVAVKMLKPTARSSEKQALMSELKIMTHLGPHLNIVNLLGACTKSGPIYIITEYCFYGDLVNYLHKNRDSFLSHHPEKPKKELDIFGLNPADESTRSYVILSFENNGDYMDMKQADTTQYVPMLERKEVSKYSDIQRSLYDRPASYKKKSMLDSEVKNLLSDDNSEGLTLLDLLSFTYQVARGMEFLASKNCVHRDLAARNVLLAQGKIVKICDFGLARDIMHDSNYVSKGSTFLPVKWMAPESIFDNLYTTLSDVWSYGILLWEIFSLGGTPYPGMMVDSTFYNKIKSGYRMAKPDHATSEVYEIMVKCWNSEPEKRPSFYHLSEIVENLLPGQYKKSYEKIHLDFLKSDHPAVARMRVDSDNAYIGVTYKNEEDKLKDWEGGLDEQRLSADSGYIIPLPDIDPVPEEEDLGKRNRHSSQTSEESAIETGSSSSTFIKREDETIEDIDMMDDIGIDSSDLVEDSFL

As for `Cc1cc(F)c(C(=O)Nc2ccc(OC3COC4(CC4)C3)cn2)cc1NC(=O)c1cnc(N)s1` (stereo not shown) [Example 199, 2-Amino-N-[4-fluoro-2-methyl-5-[[5-(4-oxaspiro[2.4]heptan-6-yloxy)pyridin-2-yl]carbamoyl]phenyl]-1,3-thiazole-5-carboxamide], the half-inhibitory concentration (IC50) against PDGFRβ was greater than 1 µM; against PDGFRα, greater than 1 µM; against c-Kit, less than 0.1 µM; on CSF1R it was greater than 1 µM.
As for `Nc1ncc(C(=O)Nc2cc(C(=O)NC3CC3)c(F)cc2Cl)s1` [Example 200, 2-Amino-N-[2-chloro-5-(cyclopropylcarbamoyl)-4-fluorophenyl]-1,3-thiazole-5-carboxamide], the IC50 at PDGFRβ is greater than 1 µM; at PDGFRα, 0.1 to 1 µM; against c-Kit, less than 0.1 µM; at CSF1R, greater than 1 µM.
For `COc1ccc(NC(=O)c2cc(NC(=O)c3cnc(N)s3)c(F)cc2F)nc1` [Example 211, 2-Amino-N-[2,4-difluoro-5-[(5-methoxypyridin-2-yl)carbamoyl]phenyl]-1,3-thiazole-5-carboxamide], the IC50 at PDGFRβ was greater than 1 µM; against PDGFRα it was greater than 1 µM; on c-Kit it was less than 0.1 µM; against CSF1R, greater than 1 µM.
Turning to `Cc1cc(F)c(NC(=O)c2cnc(N)s2)cc1C(=O)Nc1ccc(OC2CC2)cn1` [Example 223, 2-Amino-N-[5-[(5-cyclopropyloxypyridin-2-yl)carbamoyl]-2-fluoro-4-methylphenyl]-1,3-thiazole-5-carboxamide], the IC50 is greater than 1 µM at PDGFRβ, greater than 1 µM on PDGFRα, 0.1 to 1 µM on c-Kit and greater than 1 µM against CSF1R.
On to `Cc1cc(Cl)c(C(=O)Nc2ccc(OC3CC3)cn2)cc1NC(=O)c1cnc(N)s1` [Example 224, 2-Amino-N-[4-chloro-5-[(5-cyclopropyloxypyridin-2-yl)carbamoyl]-2-methylphenyl]-1,3-thiazole-5-carboxamide], for which the IC50 at PDGFRβ was 0.1 to 1 µM; on PDGFRα, greater than 1 µM; against c-Kit, less than 0.1 µM; against CSF1R it was greater than 1 µM.
For the molecule `Cc1cc(F)c(C(=O)Nc2ccc(C(F)C(F)(F)F)cn2)cc1NC(=O)c1cnc(N)s1` (stereo not shown) [Example 225, 2-Amino-N-[4-fluoro-2-methyl-5-[[5-(1,2,2,2-tetrafluoroethyl)pyridin-2-yl]carbamoyl]phenyl]-1,3-thiazole-5-carboxamide], the half-inhibitory concentration (IC50) at PDGFRβ is less than 0.1 µM; on PDGFRα, 0.1 to 1 µM; on c-Kit it was less than 0.1 µM; against CSF1R it was 0.1 to 1 µM.
In the case of `COc1ccc(NC(=O)c2cc(NC(=O)c3cnc(N)s3)c(C)cc2F)c(F)c1` [Example 228, 2-Amino-N-[4-fluoro-5-[(2-fluoro-4-methoxyphenyl)carbamoyl]-2-methylphenyl]-1,3-thiazole-5-carboxamide], the IC50 is 0.1 to 1 µM on PDGFRβ, 0.1 to 1 µM on PDGFRα, less than 0.1 µM at c-Kit and 0.1 to 1 µM on CSF1R.
With `Cc1cc(F)c(C(=O)Nc2cccc(F)c2)cc1NC(=O)c1cnc(N)s1` [Example 232, 2-Amino-N-[4-fluoro-5-[(3-fluorophenyl)carbamoyl]-2-methylphenyl]-1,3-thiazole-5-carboxamide], the half-maximal inhibitory concentration (IC50) on PDGFRβ is greater than 1 µM; at PDGFRα, greater than 1 µM; at c-Kit, less than 0.1 µM; on CSF1R, 0.1 to 1 µM.
For the molecule `Cc1cc(F)c(C(=O)Nc2ccccc2F)cc1NC(=O)c1cnc(N)s1` [Example 234, 2-Amino-N-[4-fluoro-5-[(2-fluorophenyl)carbamoyl]-2-methylphenyl]-1,3-thiazole-5-carboxamide], the IC50 is greater than 1 µM on PDGFRβ, greater than 1 µM against PDGFRα, less than 0.1 µM at c-Kit and greater than 1 µM against CSF1R.
On to `Cc1cc(F)c(C(=O)Nc2ccc(OC3CC3)cn2)cc1NC(=O)c1cnc(NCC(F)F)s1` [Example 235, N-[5-[(5-cyclopropyloxypyridin-2-yl)carbamoyl]-4-fluoro-2-methylphenyl]-2-(2,2-difluoroethylamino)-1,3-thiazole-5-carboxamide], for which the half-maximal inhibitory concentration (IC50) against PDGFRβ is 0.1 to 1 µM; at PDGFRα, greater than 1 µM; on c-Kit it was less than 0.1 µM; against CSF1R, greater than 1 µM.
